The record followed here is article PMC9304199, “A small molecule CFTR potentiator restores ATP‐dependent channel gating to the cystic fibrosis mutant G551D‐CFTR” (British Journal of Pharmacology, 2022).

The target of experiment [1] is T1, F508del‐CFTR (Homo sapiens, UniProt P13569, DEL508-508). Put plainly: Thermal stability (deactivation) of F508del‐CFTR in excised inside-out membrane patches at 37°C. The format is biochemical. Set-up: expressed in transfected cells; BHK cells from MD Amaral. As to the method: To investigate the effects of CFTR potentiators on the plasma membrane stability of F508del‐CFTR, we monitored its thermal stability in excised inside‐out membrane patches at 37°C (Wang et al., [2014]). Membrane patches were excised and F508del‐CFTR Cl^− channels activated at 27°C. Once channels were fully activated and potentiated, the temperature of the intracellular solution was increased to 37°C, which took 2–3 min. To quantify data, we calculated open probability (Po) and normalised Po values in 30‐s intervals over a 9‐min period (Wang et al., [2014]).
T1 sequence (P13569 with tags, fused parts or gaps DEL508-508): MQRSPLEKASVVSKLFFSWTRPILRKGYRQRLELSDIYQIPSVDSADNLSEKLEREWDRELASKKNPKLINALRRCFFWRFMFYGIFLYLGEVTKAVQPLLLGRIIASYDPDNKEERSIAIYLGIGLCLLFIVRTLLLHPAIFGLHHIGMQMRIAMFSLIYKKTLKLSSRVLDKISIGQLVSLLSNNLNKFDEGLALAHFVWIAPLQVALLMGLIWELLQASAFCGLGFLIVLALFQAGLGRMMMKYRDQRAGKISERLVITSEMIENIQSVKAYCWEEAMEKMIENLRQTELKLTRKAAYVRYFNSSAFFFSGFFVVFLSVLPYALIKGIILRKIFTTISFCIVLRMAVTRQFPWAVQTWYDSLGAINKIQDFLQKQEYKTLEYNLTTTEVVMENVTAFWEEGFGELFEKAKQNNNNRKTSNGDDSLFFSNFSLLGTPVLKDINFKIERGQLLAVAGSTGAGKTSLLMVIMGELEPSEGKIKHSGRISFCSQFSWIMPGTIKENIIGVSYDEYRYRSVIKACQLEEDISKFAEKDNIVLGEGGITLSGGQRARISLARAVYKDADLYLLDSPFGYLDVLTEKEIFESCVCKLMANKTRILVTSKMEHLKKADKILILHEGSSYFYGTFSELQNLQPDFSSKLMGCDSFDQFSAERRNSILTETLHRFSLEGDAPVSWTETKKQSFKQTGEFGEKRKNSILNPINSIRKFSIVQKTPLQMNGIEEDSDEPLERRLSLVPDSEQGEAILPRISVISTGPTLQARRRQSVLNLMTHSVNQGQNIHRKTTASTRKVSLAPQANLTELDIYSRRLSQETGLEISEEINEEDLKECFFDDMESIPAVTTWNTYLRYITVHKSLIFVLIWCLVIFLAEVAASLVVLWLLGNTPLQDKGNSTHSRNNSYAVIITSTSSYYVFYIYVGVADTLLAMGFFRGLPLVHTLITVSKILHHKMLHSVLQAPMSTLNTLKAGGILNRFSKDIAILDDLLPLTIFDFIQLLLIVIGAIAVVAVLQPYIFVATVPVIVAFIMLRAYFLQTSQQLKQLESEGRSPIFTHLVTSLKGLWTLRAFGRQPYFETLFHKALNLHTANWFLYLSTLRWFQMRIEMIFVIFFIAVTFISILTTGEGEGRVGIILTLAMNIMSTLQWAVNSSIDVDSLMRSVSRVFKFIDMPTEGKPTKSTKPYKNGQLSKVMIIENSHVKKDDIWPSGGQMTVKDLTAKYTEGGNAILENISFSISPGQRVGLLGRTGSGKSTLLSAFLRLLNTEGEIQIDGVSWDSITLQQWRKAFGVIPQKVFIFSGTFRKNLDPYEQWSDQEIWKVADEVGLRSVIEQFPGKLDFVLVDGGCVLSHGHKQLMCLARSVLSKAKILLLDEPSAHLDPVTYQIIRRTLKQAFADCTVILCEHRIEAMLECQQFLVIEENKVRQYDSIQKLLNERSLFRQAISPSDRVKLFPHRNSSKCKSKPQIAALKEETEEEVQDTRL

Experiment [2] concerns the target T1, F508del‐CFTR. Briefly: Ussing chamber apical Cl− current (ICl apical) in FRT epithelia expressing F508del‐CFTR. The format is cell-based. Also on record: assays at Charles River Laboratories (ChanTest). As to conditions: for EC50: F508del‐CFTR FRT epithelia, lumacaftor (5 μM) rescued, ICl apical, 27°C, read-out: EC50 (μM) (95% CI). As to the method:
Ussing chamber studies to determine the concentration–response relationships of CFTR potentiators (Figure 1c–f) were performed at Charles River Laboratories (ChanTest) (Cleveland, OH, USA). For these studies, FRT cells were stably transfected with CFTR cDNAs with the F508del and G551D variants and the common polymorphism M470 (synthesised by System Biosciences, Palo Alto, CA, USA) using the Flp‐In™ system (Thermo Fisher Scientific, Waltham, MA, USA). The F508del‐CFTR cDNA contained the following differences from the canonical CFTR cDNA sequence (NCBI Accession Number NM_000492): del CTT (1521–1523) to delete F508; synonymous changes T > C (798), A > G (801), T > C (804) to remove a cryptic bacterial promoter; synonymous change T > C (1095); G > A (1408) to give M470 and was amplified using the primers 5′ […] 3′ and 5′ […] 3′. The G551D‐CFTR cDNA contained the following differences from the canonical CFTR cDNA sequence (NCBI Accession Number NM_000492): G > A (1652) to replace G551 with D551; synonymous changes T > C (798), A > G (801), T > C (804) to remove a cryptic bacterial promoter; synonymous change A > C (516); synonymous change T > C (1095); G > A (1408) to give M470 and was amplified using the primers 5′ […] 3′ and 5′ […] 3′. Using Kpn1 and Not1 restriction sites, the F508del‐ and G551D‐CFTR cDNAs were inserted into pcDNA5/FRT (Flp‐In™) (RRID:Addgene_31984). […]
To test the effects of CP‐628006 on CFTR Cl^− channels in the apical membrane of FRT epithelia, we permeabilized the basolateral membrane with amphotericin B (100 μM). After cancelling voltage offsets, we clamped transepithelial voltage at 0 mV and measured apical Cl^− current (ICl ^apical) continuously using a Physiologic Instruments VCC MC6/8 multichannel voltage/current clamp (Li et al., [2004]).

As usually defined, the EC50 is the midpoint of the concentration-response curve. `Cc1ncccc1CNC(=O)c1ccc2c(c1)CC[C@H]1C[C@](O)(CCC(F)(F)F)CC[C@]21Cc1ccccc1` (racemic) [CP‐628006, rac‐(4bR,7R,8aS)‐4b‐benzyl‐7‐hydroxy‐N‐((2‐methylpyridin‐3‐yl)methyl)‐7‐(3,3,3‐trifluoropropyl)‐4b,5,6,7,8,8a,9,10‐octahydrophenanthrene‐2‐carboxamide]: the “increase of time to normalised Po of 50% relative to low temperature-rescued” value in experiment [1] (compound 10 μM) was “approximately 67%”. Besides, the “delay of F508del‐CFTR deactivation (time to reach normalised Po of 50%)” value in experiment [1] (compound 10 μM, ATP 1 mM, PKA 75 nM, versus low temperature-rescued control) is listed as ~ 90 s. The EC50 in experiment [2] is greater than 0.5 µM.

As for `CC(C)(C)c1cc(C(C)(C)C)c(NC(=O)c2c[nH]c3ccccc3c2=O)cc1O` [ivacaftor, reference compound], in experiment [1] (compound 1 μM, ATP 1 mM, PKA 75 nM, versus low temperature-rescued control), the “acceleration of F508del‐CFTR deactivation (time to reach normalised Po of 50%)” value was ~ 30 s. Also, in experiment [2], the EC50 stood at 0.002 µM. For the same compound, in experiment [2] (read-out: Maximal effect (%) (95% CI)), the Emax turned out to be 103%.
